According to patent publication US5620676A, “Biologically active ATP analogs” (priority 1995, dated 1997):
Where “and” joins values, the source holds several entries; their conditions need not be identical. Equal values may be shown once. Entries after “also recorded” stand apart in the source; their conditions may differ. Read-outs that look alike come from different tables or passages of the source.

Key:
[1] = molecular target: P2Y receptor (mesenteric artery); assay: Relaxation of rabbit mesenteric artery; details: log molar units
Excerpt: Muscular relaxation/contraction: Relaxant responses mediated via P2Y receptors were examined in guinea pig taenia coli, rabbit aorta, and rabbit mesenteric artery, as described by Hoyle et al. (Br. J. Pharmacol., 107, 367-374 (1992a)), Burnstock et al., (Br. J. Pharmacol., 90, 383-391 (1987a)), and Rubino et al., (Eur. J. Pharmacol., 212, 237-240 (1992)).

[2] = molecular target: T1, P2Y receptor (turkey erythrocyte membranes) (Meleagris gallopavo, UniProt P49652); assay: Stimulation of phospholipase C (inositol phosphate formation) in turkey erythrocyte membranes; format: biochemical; details: for maximal level (100%) of [3H]inositol phosphate accumulation: with GTPγS and maximal concentration of agonist
T1 construct: from tissue; host or cells: washed turkey erythrocytes, ghosts prepared by hypotonic lysis
T1 sequence (P49652 whole entry): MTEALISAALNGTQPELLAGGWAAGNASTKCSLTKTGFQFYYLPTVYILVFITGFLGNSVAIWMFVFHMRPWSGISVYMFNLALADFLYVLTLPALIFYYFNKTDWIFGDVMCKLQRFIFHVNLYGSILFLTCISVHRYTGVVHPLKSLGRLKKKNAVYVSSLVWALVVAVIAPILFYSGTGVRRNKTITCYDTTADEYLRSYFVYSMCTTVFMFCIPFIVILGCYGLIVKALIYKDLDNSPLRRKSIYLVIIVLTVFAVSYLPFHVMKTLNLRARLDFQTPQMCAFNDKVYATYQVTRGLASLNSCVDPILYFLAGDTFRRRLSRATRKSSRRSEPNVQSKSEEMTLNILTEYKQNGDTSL
Outline: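 Erythrocytes were labelled 18-24 h at 37 °C with [3H]myoinositol, and ghosts were made by hypotonic lysis. Ghosts (≈175 μg protein) were incubated 5 min at 30 °C in Hepes buffer pH 7.0 with 1 μM GTPγS and nucleotide analogs. Total [3H]inositol phosphates were purified by anion exchange; K0.5 averaged from 3-8 dose-response curves.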

[3] = molecular target: T2, P2Y receptor (taenia coli) (Cavia porcellus, UniProt P59902); assay: Relaxation of carbachol-contracted guinea pig taenia coli
T2 construct: Relaxant responses mediated via P2Y receptors were examined in guinea pig taenia coli; from tissue; host or cells: guinea pig taenia coli (carbachol-contracted)
T2 sequence (P59902 whole entry): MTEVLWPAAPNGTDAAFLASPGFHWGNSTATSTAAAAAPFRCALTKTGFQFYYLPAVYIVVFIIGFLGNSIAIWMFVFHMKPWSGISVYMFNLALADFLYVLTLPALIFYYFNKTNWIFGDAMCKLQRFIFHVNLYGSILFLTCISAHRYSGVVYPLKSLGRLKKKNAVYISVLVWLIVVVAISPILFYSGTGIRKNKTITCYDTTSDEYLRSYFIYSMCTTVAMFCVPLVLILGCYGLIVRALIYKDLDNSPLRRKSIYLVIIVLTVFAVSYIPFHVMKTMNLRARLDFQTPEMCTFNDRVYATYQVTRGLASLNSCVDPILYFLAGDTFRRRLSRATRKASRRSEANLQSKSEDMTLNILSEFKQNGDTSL
Outline: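 Guinea pig taenia coli precontracted with 50 nM carbachol; relaxation to applied P2Y agonists expressed as percentage relaxation against negative log molar agonist concentration.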

[4] = molecular target: T3, P2X receptor (saphenous artery) (Oryctolagus cuniculus, UniProt G1U3D6); assay: Contraction of rabbit saphenous artery; details: rabbit saphenous artery; for activation at 10 µM: read-out: response at 10 μM relative to the contraction produced by 1 μM α,MeATP, saph. artery
T3 construct: and rabbit saphenous artery; from tissue; host or cells: rabbit saphenous artery
T3 sequence (G1U3D6 1-399): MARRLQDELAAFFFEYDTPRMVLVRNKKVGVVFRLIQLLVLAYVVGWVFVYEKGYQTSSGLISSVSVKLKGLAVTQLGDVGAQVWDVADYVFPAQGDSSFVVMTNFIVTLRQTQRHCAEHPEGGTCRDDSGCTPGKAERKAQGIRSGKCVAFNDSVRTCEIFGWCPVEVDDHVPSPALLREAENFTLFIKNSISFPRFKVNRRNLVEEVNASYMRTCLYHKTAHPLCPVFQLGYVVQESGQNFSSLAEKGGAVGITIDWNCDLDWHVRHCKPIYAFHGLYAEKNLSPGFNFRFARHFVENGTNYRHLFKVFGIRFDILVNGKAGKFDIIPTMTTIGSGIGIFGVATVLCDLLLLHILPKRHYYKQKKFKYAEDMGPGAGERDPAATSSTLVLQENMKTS
Outline: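 Contraction of isolated rabbit saphenous artery, standard organ-bath methods; responses at 10 μM expressed as percentage of contraction produced by 1 μM α,MeATP. Highest analogue concentrations tested were 3-30 […].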

[5] = test system: P2Y receptor (aorta endothelium); assay: Relaxation of noradrenalin-contracted rabbit aorta; details: rabbit aorta; log molar units
[6] = turkey erythrocyte membranes, mean ± S.E.M. for at least 2 determinations, read-out: phosphatidyl inositol metabolism (K0.5, nM) erythrocyte

Compound	relaxation pD2, mes. artery [1]	activity/potency in words, turkey erythrocyte ([2]; turkey erythrocyte membranes)	EC50 [2, 6] [nM]	EC50 ([2]; turkey erythrocyte membranes, read-out: K0.5)	maximal level (100%) of [3H]inositol phosphate accumulation [2] [cpm]	EC50 [3] [nM]	activity/potency in words, saphenous artery [4]	activation at 10 µM [4] [%]	relaxation pD2, aorta [5]	fold diminished potency upon N6-methylation, turkey erythrocyte ([2]; relative to 2-(5-hexenyl)thio-ATP)	EC50 ([2]; turkey erythrocyte membranes, read from graph, read-out: K0.5) [nM]	relaxation pD2, taenia coli ([3]; guinea pig taenia coli, log molar units)
N#CCCCCCCSc1nc(N)c2ncn([C@@H]3O[C@H](COP(=O)(O)OP(=O)(O)OP(=O)(O)O)[C@@H](O)[C@H]3O)c2n1 [2-(6-Cyanohexylthio)-ATP, 2-(6-Cyanohexylthio)adenosine-5'-triphosphate]	7.0	at least two orders of magnitude more potent; also recorded: about three orders of magnitude more potent	10 ± 5	5 to 30 nM and ~10 nM	6000	1.58	at best weak agonists in the saphenous artery	9.2	6.9	–	–	–
C=CCCCCSc1nc(NC)c2ncn([C@@H]3O[C@H](COP(=O)(O)OP(=O)(O)OP(=O)(O)O)[C@@H](O)[C@H]3O)c2n1 [N^6 -Me-2-(5-hexenyl)-thio-ATP, N^6 -Me-2-(5-hexenylthio)adenosine 5'-triphosphate]	6.0	–	26 ± 7	–	9150	–	–	1.5	5.6	2.6 -fold	10	7.2
